Source: publication PMC12716005, “Design, Synthesis, and Molecular Docking of Triazole‐Coumarin Hybrids as Potent Breast Cancer Inhibitors Targeting Cell Cycle and Apoptosis” (Chemistry & Biodiversity, 2025)
Blank lines part the entries; values can stand above or below the compound they belong to.

Experiments:
[1] = system: MCF‐10A human breast epithelial cells; test: MTT cell viability assay, MCF-10A; format: cell-based; details: 72 h, non-tumorigenic cells
Method: (§1) Human cell lines, breast cancer MCF‐7 and MDA‐MB‐231, along with the human breast epithelial cell line (MCF‐10A), were purchased from ATCC (Rockville, USA). The necessary supplies, including fetal bovine serum (FBS), RPMI 1640 medium, 3‐(4,5‐dimethylthiazol‐2‐yl)‐2,5‐diphenyltetrazolium bromide (MTT), and DMSO, were provided by Merck (Darmstadt, Germany). The cells were maintained at 37°C in a CO2─enriched chamber, utilizing RPMI 1640 medium fortified with 10% FBS and 100 U/mL of penicillin/streptomycin [30].
(§2) Cell survival was evaluated using the MTT technique, which measures cellular redox activity. In metabolically active cells, MTT (3‐(4,5‐dimethylthiazol‐2‐yl)) is reduced to form an insoluble purple formazan. This formazan was solubilized, and its concentration was quantified by measuring optical density. MTT, sourced as a powder from Sigma, was made with phosphate‐buffered saline (PBS) in a 5 mM standard solution. The density at which cells were propagated was 10⁴ cells per well in 96‐well plates. Triazole‐coumarin hybrids were dissolved in DMSO, and varying concentrations (0.1–200 µM) of these derivatives were applied to the cells. Following treatment for 24, 48, and 72 h, 20 µL of the MTT mix was applied to each well, and the wells were then incubated for 4 h at thirty‐seven degrees in a CO2 incubator. After incubating, the formazan crystals were dissolved by adding 200 µL of DMSO after the MTT mixture was withdrawn. The absorption rate was recorded at 590 nm utilizing a Tecan spectrophotometer. Cisplatin served as the reference drug. […] To determine the selective toxicity of the triazole‐coumarin hybrids against breast cancer cells, the formula was used to compute the SI = IC50 for normal cells/IC50 for cancer cells.

[2] = system: MDA‐MB‐231 breast cancer cells; test: MTT cell viability assay, MDA-MB-231; format: cell-based, human; details: for IC50: MTT, 72 h
Method: as §1, §2

[3] = system: MCF‐7 breast cancer cells; test: MTT cell viability assay, MCF-7; format: cell-based, human; details: for IC50: MTT, 72 h
Method: as §1, §2

[4] = system: MCF‐7; design: method as in PMID 30556027; details: literature ref 28; cited from earlier work
[5] = system: MCF‐7 breast cancer cells; test: Cell cycle analysis by flow cytometry (PI), MCF-7; format: cell-based, human; details: 72 h
Method: (§3) In 24‐well plates, cells were introduced at a concentration of 5×10⁵ colonies per plate, and compound 5f was administered at its IC50 concentration for 72 h. The cell cycle phases were evaluated using the Cayman Cell Cycle Phase Determination Kit. Following treatment, applying cold PBS, cells were rinsed, trypsinized, and 5 min of centrifugation at 500 × g. The resulting pellets were resuspended in 250 µL of fixative and held at −20°C for 2 h. After a second centrifugation at 500 × g for 5 min, washing was carried out with PBS and stained with propidium iodide (PI) for 30 min at room temperature. Flow cytometric analysis of the cell cycle was implemented using a BD Accuri C6 flow cytometer, with detection wavelengths ranging from 488 to 650 nm.

[6] = system: Bcl─2 mRNA; test: qRT-PCR Bcl-2 mRNA in MDA-MB-231; format: cell-based, human; details: MDA-MB-231, IC50 value of 5f, 72 h
Method: (§4) To figure out the mRNA levels of apoptosis‐related proteins B‐cell lymphoma 2 (Bcl─2), Bcl─2‐associated X protein (Bax), cyclin‐dependent kinase 2 (CDK2), and Cyclin E, total mRNA was extracted from cells treated with compound 5f using Trizol reagent (Sigma). Complementary DNA (cDNA) synthesis was conducted from total mRNA using a Qiagen cDNA synthesis kit as described by the manufacturer. The primers listed below (350 nM concentration) were utilized: Bcl─2; forward ([…]); reverse ([…]), Bax; forward ([…]); reverse ([…]), CDK2; forward ([…]); reverse (TGGCTGAAATCCGCTTGTT), Cyclin E; forward ([…]); reverse ([…]), human GAPDH; forward ([…]); reverse (AGATGGTGATGGGCTTCCC). The PCR reaction mixture consisted of 1X buffer, 0.2 mM dNTPs, 1.6 mM MgCl2, 50 pmol of primer sets, cDNA, and 0.25 U of Taq polymerase. The thermal cycling conditions included an initial denaturation at 95°C for 60 s, followed by 50 cycles comprising 15 s of denaturation at 95°C, 15 s of annealing at 60°C, and 60 s of extension at 72°C. The median CT value of GAPDH, the naturally present housekeeping gene, was utilized to normalize the cycle threshold (CT) values. Levels of compared transcription were established using the comparative ^ΔΔCT method.

[7] = system: Bax mRNA; test: qRT-PCR Bax mRNA in MDA-MB-231; format: cell-based, human; details: MDA-MB-231, IC50 value of 5f, 72 h
Method: as §4

[8] = system: MCF‐7 breast cancer cells; test: DNA fragmentation (Cell Death Detection kit), MCF-7; format: cell-based, human; details: 72 h, p < 0.05
Method: (§5) As an apoptotic signature, DNA fragmentation was evaluated using the Cell Death Detection kit (Sigma). In 96‐well plates, cancerous cells were cultivated at a density of 1×10⁵ cells per well, and compound 5f was applied at its IC50 concentration for 72 h. In brief, 20 µL of cell lysates were transferred to streptavidin‐coated wells preloaded with anti‐DNA antibodies and held at RT for 2 h. Three washes afterward with the provided washing buffer, 2,2‐azino‐di‐(3‐ethylbenzthiazoline sulfonate) diammonium salt was put into every well. Absorbance was determined at 405 nm employing a spectrophotometer.

[9] = system: Bcl─2 mRNA; test: qRT-PCR Bcl-2 mRNA in MCF-7; format: cell-based, human; details: MCF-7, IC50 value of 5f, 72 h
Method: as §4

[10] = system: MDA‐MB‐231 breast cancer cells; test: DNA fragmentation (Cell Death Detection kit), MDA-MB-231; format: cell-based, human; details: 72 h, p < 0.05
Method: as §5

[11] = system: Bax mRNA; test: qRT-PCR Bax mRNA in MCF-7; format: cell-based, human; details: MCF-7, IC50 value of 5f, 72 h
Method: as §4

[12] = system: MDA‐MB‐231 breast cancer cells; test: Cell cycle analysis by flow cytometry (PI), MDA-MB-231; format: cell-based, human; details: 72 h
Method: as §3

[13] = SI = IC50 for normal cells (MCF-10A)/IC50 for cancer cells

IC50 ([2]; Homo sapiens, MDA-MB-231, 72 h): 87 ± 2 µM | IC50 ([3]; Homo sapiens, MCF7, 72 h): 49.8 ± 2.2 µM
Compound: O=C(Nn1c(Cc2ccccc2)n[nH]c1=O)c1cc2c(ccc3ccccc32)oc1=O [Derivative 5d, N‐(3‐Benzyl‐5‐oxo‐1,5‐dihydro‐4H‐1,2,4‐triazol‐4‐yl)‐3‐oxo‐3H‐benzo[f]chromene‐2‐carboxamide]
IC50 ([1]; Homo sapiens, MCF-10A): 38.2 ± 0.7 µM

IC50 ([2]; Homo sapiens, MDA-MB-231, 72 h): 61.7 ± 0.4 µM | IC50 ([3]; Homo sapiens, MCF7, 72 h): 68.9 ± 3.1 µM
Compound: Cc1ccc(Cc2n[nH]c(=O)n2NC(=O)c2cc3c(ccc4ccccc43)oc2=O)cc1 [Derivative 5e, N‐(3‐(4‐Methylbenzyl)‐5‐oxo‐1,5‐dihydro‐4H‐1,2,4‐triazol‐4‐yl)‐3‐oxo‐3H‐benzo[f]chromene‐2‐carboxamide]
IC50 ([1]; Homo sapiens, MCF-10A): 40.6 ± 2.1 µM

IC50 ([2]; Homo sapiens, MDA-MB-231, 72 h): < 25 µM | IC50 [2]: 15.7 ± 0.2 µM | IC50 ([3]; Homo sapiens, MCF7, 72 h): < 25 µM | IC50 [3]: 22.1 ± 0.42 µM
Compound: O=C(Nn1c(Cc2ccc(Cl)cc2)n[nH]c1=O)c1cc2c(ccc3ccccc32)oc1=O [Derivative 5f, N‐(3‐(4‐Chlorobenzyl)‐5‐oxo‐1,5‐dihydro‐4H‐1,2,4‐triazol‐4‐yl)‐3‐oxo‐3H‐benzo[f]chromene‐2‐carboxamide]
Cell cycle kinetics, M ([5]; MCF-7, IC50 value of 5f): 22.9 | Cell cycle kinetics, S ([5]; MCF-7, IC50 value of 5f): 36.1 | phase of cell cycle block ([5]; MCF-7, IC50 value): S phase | Bcl─2 mRNA level, downregulated [6]: 3.1 fold | Bax mRNA level, upregulated [7]: 2.35 fold | DNA fragmentation induction ([8]; MCF-7, 1 µM): 1.65 fold | DNA fragmentation induction ([8]; MCF-7, 10 µM): 3 fold | DNA fragmentation induction ([8]; MCF-7, 50 µM): 4.1 fold | Bcl─2 mRNA level, downregulated [9]: 2.1 fold | IC50 ([1]; Homo sapiens, MCF-10A): 61.9 ± 0.6 µM | DNA fragmentation induction ([10]; MDA-MB-231, 1 µM): 1.7 fold | DNA fragmentation induction ([10]; MDA-MB-231, 10 µM): 2.15 fold | DNA fragmentation induction ([10]; MDA-MB-231, 50 µM): 4.15 fold | selectivity index (SI) MDA‐MB‐231 [2, 13]: 3.9 | selectivity index (SI) MCF‐7 [3, 13]: 2.8 | Bax mRNA level, upregulated [11]: 2.35 fold | Cell cycle kinetics, G0/G1 ([12]; MDA-MB-231, IC50 value of 5f): 0.8 | Cell cycle kinetics, M ([12]; MDA-MB-231, IC50 value of 5f): 20.0 | Cell cycle kinetics, S ([12]; MDA-MB-231, IC50 value of 5f): 36.6 | phase of cell cycle block ([12]; MDA-MB-231, IC50 value): S phase

The remaining lines, values behind:

Compound: N.N.[Cl][Pt][Cl] [Cisplatin, cisplatin, reference compound]
IC50 [1]: 12.2 ± 0.8 µM | IC50 [2]: 8.7 ± 0.6 µM | IC50 [3]: 9.3 ± 1.2 µM

Compound: Cc1n[nH]c(=O)n1NC(=O)c1cc2c(ccc3ccccc32)oc1=O [Derivative 5a, N‐(3‐Methyl‐5‐oxo‐1,5‐dihydro‐4H‐1,2,4‐triazol‐4‐yl)‐3‐oxo‐3H‐benzo[f]chromene‐2‐carboxamide]
IC50 ([1]; Homo sapiens, MCF-10A): 12.5 ± 1 µM | IC50 ([2]; Homo sapiens, MDA-MB-231, 72 h): 18.4 ± 1.16 µM | IC50 ([3]; Homo sapiens, MCF7, 72 h): 22.5 ± 1.8 µM

Compound: CCc1n[nH]c(=O)n1NC(=O)c1cc2c(ccc3ccccc32)oc1=O [Derivative 5b, N‐(3‐Ethyl‐5‐oxo‐1,5‐dihydro‐4H‐1,2,4‐triazol‐4‐yl)‐3‐oxo‐3H‐benzo[f]chromene‐2‐carboxamide]
IC50 ([1]; Homo sapiens, MCF-10A): 25.2 ± 1.5 µM | IC50 ([2]; Homo sapiens, MDA-MB-231, 72 h): 95.8 ± 2.4 µM | IC50 ([3]; Homo sapiens, MCF7, 72 h): 76.6 ± 2.1 µM | apoptotic effect in MCF‐7 [4]: altered the mitochondrial membrane potential in MCF‐7, causing apoptotic cell death

Compound: O=C(Nn1c(-c2ccccc2)n[nH]c1=O)c1cc2c(ccc3ccccc32)oc1=O [Derivative 5c, 3‐Oxo‐N‐(5‐oxo‐3‐phenyl‐1,5‐dihydro‐4H‐1,2,4‐triazol‐4‐yl)‐3H‐benzo[f]chromene‐2‐carboxamide]
IC50 ([1]; Homo sapiens, MCF-10A): 62.8 ± 0.4 µM | IC50 ([2]; Homo sapiens, MDA-MB-231, 72 h): 64 ± 1.4 µM | IC50 ([3]; Homo sapiens, MCF7, 72 h): 25.9 ± 0.8 µM
